Laboratory results from patent US8987195B2 (priority 2012, dated 2015).

Experiments:
HCV genotype 1b replicon = assay: HCV replicon assay, genotype 1b replicon EC50; format: cell-based, Hepatitis C virus; conditions: Hepatitis C virus, genotype 1b replicon; read-out: EC50 [gt-1b]
Method in brief: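 Replicon cells (Neo^r, some luciferase:Neo^r fusion); G418 removed at plating; compound dilution series, 24-48 h. Readout: RNA by 32P-probe hybridization/protection or TaqMan, normalized to cyclophilin A RNA, or luciferase. EC50 vs DMSO control, 4-parameter fit.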

[1] = target: HCV NS3/4A protease genotype 1b (Hepatitis C virus genotype 1b, UniProt P26663); assay: HCV NS3/4A protease time-resolved fluorescence (TRF) assay, Ki against genotype 1b; format: biochemical; conditions: IC50 [gt-1b] (nM), NS3/4A genotype 1b, enzyme 0.2 nM
HCV NS3/4A protease genotype 1b, sequence (P26663 1027-1657): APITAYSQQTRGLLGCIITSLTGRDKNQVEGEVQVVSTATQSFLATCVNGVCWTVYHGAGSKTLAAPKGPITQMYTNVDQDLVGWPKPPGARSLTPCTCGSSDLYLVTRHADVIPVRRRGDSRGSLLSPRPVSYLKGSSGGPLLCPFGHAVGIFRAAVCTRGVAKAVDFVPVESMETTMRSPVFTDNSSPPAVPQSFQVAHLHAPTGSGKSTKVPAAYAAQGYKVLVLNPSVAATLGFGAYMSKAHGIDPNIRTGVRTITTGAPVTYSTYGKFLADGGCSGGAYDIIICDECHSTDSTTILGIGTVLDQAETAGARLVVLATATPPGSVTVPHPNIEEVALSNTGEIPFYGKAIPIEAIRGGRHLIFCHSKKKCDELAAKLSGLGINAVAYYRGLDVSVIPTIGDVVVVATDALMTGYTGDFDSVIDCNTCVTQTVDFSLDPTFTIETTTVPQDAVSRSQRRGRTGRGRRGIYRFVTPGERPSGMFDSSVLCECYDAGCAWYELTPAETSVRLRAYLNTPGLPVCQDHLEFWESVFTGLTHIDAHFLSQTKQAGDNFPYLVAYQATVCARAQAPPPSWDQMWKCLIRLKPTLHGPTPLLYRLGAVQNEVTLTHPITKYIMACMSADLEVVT
HCV NS3/4A protease genotype 1b, sequence (P26663 1658-1711): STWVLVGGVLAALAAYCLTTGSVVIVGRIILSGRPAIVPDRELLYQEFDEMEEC
Method in brief: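 Ki values come from IC50 fits corrected for substrate concentration and KM. The time-resolved fluorescence protease reaction used 25 nM peptide substrate, 2.5 h, room temperature, pH 7.5 HEPES buffer, after 30 min enzyme–inhibitor preincubation.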

| Structure (SMILES) | EC50 (HCV genotype 1b replicon) | IC50 [1] |
| --- | --- | --- |
| CC(C)(C)OC(=O)N[C@H]1CCCCC/C=C\[C@@H]2C[C@@]2(C(=O)NS(=O)(=O)C2(C)CC2)NC(=O)[C@@H]2C[C@]3(CCc4c(c(C(F)F)nc5ccc(Cl)cc45)O3)CN2C1=O [Example 331, tert-butyl [(2R,6S,12Z,13aS,14aR,16aS)-9′-chloro-5′-(difluoromethyl)-14a-{[(1-methylcyclopropyl)sulfonyl]carbamoyl}-5,16-dioxo-1,1′,2′,5,6,7,8,9,10,11,13a,14,14a,15,16,16a-hexadecahydrospiro[cyclopropa[e]pyrrolo[1,2-a][1,4]diazacyclopentadecine-2,3′-pyrano[2,3-c]quinolin]-6-yl]carbamate] | 6.71 nM | 0.01 nM |
| Cc1nc2ccc(C3CC3)cc2c2c1O[C@]1(CC2)C[C@H]2C(=O)N[C@]3(C(=O)NS(=O)(=O)C4(C)CC4)C[C@H]3/C=C\CCCCC[C@H](NC(=O)OC(C)(C)C)C(=O)N2C1 [Example 332, tert-butyl [(2R,6S,12Z,13aS,14aR,16aS)-9′-cyclopropyl-5′-methyl-14a-{[(1-methylcyclopropyl)sulfonyl]carbamoyl}-5,16-dioxo-1,1′,2′,5,6,7,8,9,10,11,13a,14,14a,15,16,16a-hexadecahydrospiro[cyclopropa[e]pyrrolo[1,2-a][1,4]diazacyclopentadecine-2,3′-pyrano[2,3-c]quinolin]-6-yl]carbamate] | 2.69 nM | 0.017 nM |
| Cc1nc2ccc(Cl)cc2c2c1O[C@]1(CC2)C[C@H]2C(=O)N[C@]3(C(=O)NS(=O)(=O)C4(C)CC4)C[C@H]3/C=C\CCCCC[C@H](NC(=O)OC(C)(C)C(F)(F)F)C(=O)N2C1 [Example 333, 1,1,1-trifluoro-2-methylpropan-2-yl [(2R,6S,12Z,13aS,14aR,16aS)-9′-chloro-5′-methyl-14a-{[(1-methylcyclopropyl)sulfonyl]carbamoyl}-5,16-dioxo-1,1′,2′,5,6,7,8,9,10,11,13a,14,14a,15,16,16a-hexadecahydrospiro[cyclopropa[e]pyrrolo[1,2-a][1,4]diazacyclopentadecine-2,3′-pyrano[2,3-c]quinolin]-6-yl]carbamate] | 10.3 nM | 0.01 nM |
| CC(C)(OC(=O)N[C@H]1CCCCC/C=C\[C@@H]2C[C@@]2(C(=O)NS(=O)(=O)C2(C)CC2)NC(=O)[C@@H]2C[C@]3(CCc4c(c(C(F)F)nc5ccc(Cl)cc45)O3)CN2C1=O)C(F)(F)F [Example 334, 1,1,1-trifluoro-2-methylpropan-2-yl [(2R,6S,12Z,13aS,14aR,16aS)-9′-chloro-5′-(difluoromethyl)-14a-{[(1-methylcyclopropyl)sulfonyl]carbamoyl}-5,16-dioxo-1,1′,2′,5,6,7,8,9,10,11,13a,14,14a,15,16,16a-hexadecahydrospiro[cyclopropa[e]pyrrolo[1,2-a][1,4]diazacyclopentadecine-2,3′-pyrano[2,3-c]quinolin]-6-yl]carbamate] | 5.59 nM | 0.019 nM |
| CCc1nc2ccc(OC)cc2c2c1O[C@]1(CC2)C[C@H]2C(=O)N[C@]3(C(=O)NS(=O)(=O)C4(C)CC4)C[C@H]3/C=C\CCCCC[C@H](NC(=O)OC(C)(C)C(F)(F)F)C(=O)N2C1 [Example 335, 1,1,1-trifluoro-2-methylpropan-2-yl [(2R,6S,12Z,13aS,14aR,16aS)-5′-ethyl-9′-methoxy-14a-{[(1-methylcyclopropyl)sulfonyl]carbamoyl}-5,16-dioxo-1,1′,2′,5,6,7,8,9,10,11,13a,14,14a,15,16,16a-hexadecahydrospiro[cyclopropa[e]pyrrolo[1,2-a][1,4]diazacyclopentadecine-2,3′-pyrano[2,3-c]quinolin]-6-yl]carbamate] | 2.6 nM | 0.017 nM |
| CCc1nc2ccc(OC)cc2c2c1O[C@]1(CC2)C[C@H]2C(=O)N[C@]3(C(=O)NS(=O)(=O)C4(C)CC4)C[C@H]3/C=C\CCCCC[C@H](NC(=O)OC3CCCC3)C(=O)N2C1 [Example 336, cyclopentyl [(2R,6S,12Z,13aS,14aR,16aS)-5′-ethyl-9′-methoxy-14a-{[(1-methylcyclopropyl)sulfonyl]carbamoyl}-5,16-dioxo-1,1′,2′,5,6,7,8,9,10,11,13a,14,14a,15,16,16a-hexadecahydrospiro[cyclopropa[e]pyrrolo[1,2-a][1,4]diazacyclopentadecine-2,3′-pyrano[2,3-c]quinolin]-6-yl]carbamate] | 3.46 nM | 0.008 nM |
| CCc1nc2ccc(OC)cc2c2c1O[C@]1(CC2)C[C@H]2C(=O)N[C@]3(C(=O)NS(=O)(=O)C4(C)CC4)C[C@H]3/C=C\CCCCC[C@H](NC(=O)OCC(C)C)C(=O)N2C1 [Example 337, 2-methylpropyl [(2R,6S,12Z,13aS,14aR,16aS)-5′-ethyl-9′-methoxy-14a-{[(1-methylcyclopropyl)sulfonyl]carbamoyl}-5,16-dioxo-1,1′,2′,5,6,7,8,9,10,11,13a,14,14a,15,16,16a-hexadecahydrospiro[cyclopropa[e]pyrrolo[1,2-a][1,4]diazacyclopentadecine-2,3′-pyrano[2,3-c]quinolin]-6-yl]carbamate] | 2.37 nM | 0.009 nM |
| CCc1nc2ccc(OC)cc2c2c1O[C@]1(CC2)C[C@H]2C(=O)N[C@]3(C(=O)NS(=O)(=O)C4(C)CC4)C[C@H]3/C=C\CCCCC[C@H](NC(=O)OCC(C)(C)C)C(=O)N2C1 [Example 338, 2,2-dimethylpropyl [(2R,6S,12Z,13aS,14aR,16aS)-5′-ethyl-9′-methoxy-14a-{[(1-methylcyclopropyl)sulfonyl]carbamoyl}-5,16-dioxo-1,1′,2′,5,6,7,8,9,10,11,13a,14,14a,15,16,16a-hexadecahydrospiro[cyclopropa[e]pyrrolo[1,2-a][1,4]diazacyclopentadecine-2,3′-pyrano[2,3-c]quinolin]-6-yl]carbamate] | 1.53 nM | 0.009 nM |
| Cc1nc2cc(F)ccc2c2c1O[C@]1(CC2)C[C@H]2C(=O)N[C@]3(C(=O)NS(=O)(=O)C4(C)CC4)C[C@H]3/C=C\CCCCC[C@H](NC(=O)OCC(C)(C)C)C(=O)N2C1 [Example 339, 2,2-dimethylpropyl [(2R,6S,12Z,13aS,14aR,16aS)-8′-fluoro-5′-methyl-14a-{[(1-methylcyclopropyl)sulfonyl]carbamoyl}-5,16-dioxo-1,1′,2′,5,6,7,8,9,10,11,13a,14,14a,15,16,16a-hexadecahydrospiro[cyclopropa[e]pyrrolo[1,2-a][1,4]diazacyclopentadecine-2,3′-pyrano[2,3-c]quinolin]-6-yl]carbamate] | 1.92 nM | 0.019 nM |
| Cc1nc2cc(F)ccc2c2c1O[C@]1(CC2)C[C@H]2C(=O)N[C@]3(C(=O)NS(=O)(=O)C4(C)CC4)C[C@H]3/C=C\CCCCC[C@H](NC(=O)OCC(C)C)C(=O)N2C1 [Example 340, 2-methylpropyl [(2R,6S,12Z,13aS,14aR,16aS)-8′-fluoro-5′-methyl-14a-{[(1-methylcyclopropyl)sulfonyl]carbamoyl}-5,16-dioxo-1,1′,2′,5,6,7,8,9,10,11,13a,14,14a,15,16,16a-hexadecahydrospiro[cyclopropa[e]pyrrolo[1,2-a][1,4]diazacyclopentadecine-2,3′-pyrano[2,3-c]quinolin]-6-yl]carbamate] | 3.23 nM | 0.03 nM |
| COc1cccc(N[C@H]2CCCCC/C=C\[C@@H]3C[C@@]3(C(=O)NS(=O)(=O)C3(C)CC3)NC(=O)[C@@H]3C[C@]4(CCc5c(c(C)nc6ccccc56)O4)CN3C2=O)c1 [Example 341, (2R,6S,12Z,13aS,14aR,16aS)-6-[(3-methoxyphenyl)amino]-5′-methyl-N-[(1-methylcyclopropyl)sulfonyl]-5,16-dioxo-1,1′,2′,6,7,8,9,10,11,13a,14,15,16,16a-tetradecahydrospiro[cyclopropa[e]pyrrolo[1,2-a][1,4]diazacyclopentadecine-2,3′-pyrano[2,3-c]quinoline]-14a(5R)-carboxamide] | 1.04 nM | 0.172 nM |
| Cc1cccc(N[C@H]2CCCCC/C=C\[C@@H]3C[C@@]3(C(=O)NS(=O)(=O)C3(C)CC3)NC(=O)[C@@H]3C[C@]4(CCc5c(c(C)nc6ccccc56)O4)CN3C2=O)n1 [Example 343, (2R,6S,12Z,13aS,14aR,16aS)-5′-methyl-N-[(1-methylcyclopropyl)sulfonyl]-6-[(6-methylpyridin-2-yl)amino]-5,16-dioxo-1,1′,2′,6,7,8,9,10,11,13a,14,15,16,16a-tetradecahydrospiro[cyclopropa[e]pyrrolo[1,2-a][1,4]diazacyclopentadecine-2,3′-pyrano[2,3-c]quinoline]-14a(5H)-carboxamide] | 5.86 nM | 0.05 nM |
| Cc1nc2ccccc2c2c1O[C@]1(CC2)C[C@H]2C(=O)N[C@]3(C(=O)NS(=O)(=O)C4(C)CC4)C[C@H]3/C=C\CCCCC[C@H](N)C(=O)N2C1 [Example 344, (2R,6S,12Z,13aS,14aR,16aS)-6-amino-5′-methyl-N-[(1-methylcyclopropyl)sulfonyl]-5,16-dioxo-1,1′,2′,6,7,8,9,10,11,13a,14,15,16,16a-tetradecahydrospiro[cyclopropa[e]pyrrolo[1,2-a][1,4]diazacyclopentadecine-2,3′-pyrano[2,3-c]quinoline]-14a(5H)-carboxamide] | 662 nM | 0.685 nM |
| Cc1nc2ccccc2c2c1O[C@]1(CC2)C[C@H]2C(=O)N[C@]3(C(=O)NS(=O)(=O)C4(C)CC4)C[C@H]3/C=C\CCCCC[C@H](Nc3cccc(F)c3)C(=O)N2C1 [Example 345, (2R,6S,12Z,13aS,14aR,16aS)-6-[(3-fluorophenyl)amino]-5′-methyl-N-[(1-methylcyclopropyl)sulfonyl]-5,16-dioxo-1,1′,2′,6,7,8,9,10,11,13a,14,15,16,16a-tetradecahydrospiro[cyclopropa[e]pyrrolo[1,2-a][1,4]diazacyclopentadecine-2,3′-pyrano[2,3-c]quinoline]-14a(5H)-carboxamide] | 6.59 nM | 0.428 nM |
